≈ marks a conversion by molar mass, not a printed value. Counter-ions that a name gives are not always drawn. Like-named read-outs stand apart in the source and are kept apart here.
Columns and labels:
Assay type in all cases: cell-based
[1] = system: Streptococcus pyogenes (ATCC 700294); assay: MIC determination, microbroth dilution; settings: ATCC700294; Streptococcus pyogenes (ATCC 700294); read-out: MIC S. py.
[2] = system: Pseudomonas aeruginosa (PA01); assay: MIC determination, microbroth dilution
[3] = system: Bacillus subtilis (ATCC 23857); assay: MIC determination, microbroth dilution; settings: ATCC23857; Bacillus subtilis (ATCC 23857); read-out: MIC B.s.
[4] = system: Burkholderia cepacia (ATCC 25416); assay: MIC determination, microbroth dilution; settings: Burkholderia cepacia
[5] = system: Staphylococcus aureus (ATCC 29213); assay: MIC determination, microbroth dilution; settings: ATCC29213; Staphylococcus aureus (ATCC 29213); read-out: MIC S.a.
[6] = system: Klebsiella pneumoniae (ATCC 33495); assay: MIC determination, microbroth dilution; settings: ATCC33495
[7] = system: Enterococcus faecalis (ATCC 33186); assay: MIC determination, microbroth dilution
E. coli K12 ΔtolC = assay: microbe, parasite or virus in culture; settings: Escherichia coli, read-out: MIC E.c. Δtolc
[8] = system: Stenotrophomonas maltophilia (ATCC 13637); assay: MIC determination, microbroth dilution; settings: ATCC13637; Stenotrophomonas maltophilia (ATCC 13637); read-out: MIC S.m.
[9] = system: Proteus vulgaris (ATCC 33420); assay: MIC determination, microbroth dilution; settings: ATCC33420
[10] = system: Neisseria gonorrhoeae (ATCC 49226); assay: Agar MIC determination (Alamar Blue); settings: ATCC49226, agar MIC, read-out: MIC N.g.
[11] = system: acinetobacter baumannii (ATCC 19606); assay: MIC determination, microbroth dilution; settings: ATCC19606
[12] = system: Legionella pneumophila (ATCC 33153); assay: microbe, parasite or virus in culture; settings: ATCC33153, 72 h, read-out: Zone of inhibition L.p.
[13] = system: M. tuberculosis clinical isolates; assay: microbe, parasite or virus in culture; settings: Mycobacterium tuberculosis, H37RV, read-out: MIC H37Rv
[14] = system: Proteus mirabilis (ATCC 25933); assay: MIC determination, microbroth dilution; settings: ATCC25933
[15] = system: Escherichia coli (ATCC 700926); assay: MIC determination, microbroth dilution
[16] = system: Streptococcus pneumoniae (R6); assay: MIC determination, microbroth dilution; settings: read-out: MIC S. pn.
[17] = system: Bacillus anthracis, Sterne 34F2; assay: microbe, parasite or virus in culture; settings: STERNE34F2, read-out: MIC B.a.
[18] = system: MRSA, Staphylococcus aureus (NRS70); assay: MIC determination, microbroth dilution; settings: read-out: MIC MRSA
Listeria monocytogenes = assay: MIC determination (Table 6)
Bacillus anthracis = assay: microbe, parasite or virus in culture; settings: read-out: MIC B.a.
[19] = system: Haemophilus influenza (ATCC 49247); assay: microbe, parasite or virus in culture; settings: ATCC49247; Haemophilus influenza; 4 μg per disc; range of at least two experiments; read-out: Zone of inhibition H.i.
[20] = system: Neisseria gonorrhoeae (ATCC 49226); assay: Disc diffusion assay; settings: ATCC49226, 4 μg per disc, read-out: Zone of inhibition N.g.
Moraxella catarrhalis = assay: MIC determination (Table 6)
[21] = system: Neisseria meningitides (ATCC 13077); assay: Disc diffusion assay; settings: ATCC13077, 4 μg per disc, read-out: Zone of inhibition N.m.
[22] = ATCC25416, read-out: MIC B.c., Burkholderia cepacia (ATCC 25416)
[23] = ATCC33186, Enterococcus faecalis (ATCC 33186), read-out: MIC E.f.
[24] = ATCC25416, read-out: MIC B.c., Burkholderia cepacia, Table 6
[25] = ATCC700926, Escherichia coli (ATCC 700926), read-out: MIC E.c.

Compound	MIC [1]	MIC [2]	MIC [3]	MIC [4, 22]	MIC [5]	MIC [6]	MIC [7, 23]	MIC (E. coli K12 ΔtolC)	MIC [8]	MIC [9]	MIC [10]	MIC [11]	MIC [13]	MIC [14]	MIC ([16]; Streptococcus pneumoniae (R6))	MIC [17]	MIC ([18]; Staphylococcus aureus (NRS70))	zone of inhibition at 4 µg/disc [19]	MIC [15, 25]	zone of inhibition at 4 µg/disc [21]	further results
CN[C@@H]1[C@H](O)[C@H](NC)[C@H]2O[C@]3(O)[C@H](O[C@@H]2[C@H]1O)O[C@H](C)C[C@]3(O)CNCc1ccc(OC(F)(F)F)cc1 (stereo in doubt) [compound 26, 3′-(S)-3′-[(4-trifluoromethoxyl)benzylaminomethyl)]dihydrospectinomycin Trihydrochloride]	> 200 µg/mL	> 200 µg/mL	100 to 200 µg/mL	> 200 µg/mL	≥ 200 µg/mL	100 µg/mL	> 200 µg/mL	6.3 µg/mL	50 µg/mL	> 200 µg/mL	50 to 100 µg/mL	50 to 100 µg/mL	100 µg/mL	> 200 µg/mL	> 200 µg/mL	≥ 200 µg/mL	> 200 µg/mL	–	–	–	zone of inhibition at 4 µg/disc [12]: 8 mm; MIC ([15]; Escherichia coli, ATCC700926, read-out: MIC E.c.): 50 µg/mL
CN[C@@H]1[C@H](O)[C@H](NC)[C@H]2O[C@]3(O)[C@H](O[C@@H]2[C@H]1O)O[C@H](C)C[C@@]3(O)CNCc1ccc(C(F)(F)F)cc1 [compound 5, 3′-(R)-3′-[(4-trifluoromethyl)benzylaminomethyl)]dihydrospectinomycin Trihydrochloride]	1.6 µg/mL	200 µg/mL	6.3 µg/mL	100 µg/mL	50 µg/mL	100 µg/mL	12.5 to 25 µg/mL	6.3 to 12.5 µg/mL	25 µg/mL	> 200 µg/mL	100 µg/mL	≥ 200 µg/mL	25 µg/mL	> 200 µg/mL	1.6 µg/mL	25 to 50 µg/mL	25 µg/mL	17 to 18 mm	50 µg/mL	21 mm	MIC (Listeria monocytogenes): 12.5 µg/mL; MIC [4, 24]: 100 µg/mL; MIC (Bacillus anthracis): 25 to 50 µg/mL; zone of inhibition at 4 µg/disc [20]: 18 mm; MIC (Moraxella catarrhalis): 3.1 to 6.3 µg/mL; zone of inhibition at 4 µg/disc [12]: 27 to 28 mm
CN[C@@H]1[C@H](O)[C@H](NC)[C@H]2O[C@]3(O)[C@H](O[C@@H]2[C@H]1O)O[C@H](C)C[C@@]3(O)CNCc1cccnc1 [compound 7, 3′-(R)-3′-(3-pyridinylmethylaminomethyl)dihydrospectinomycin Tetrahydrobromide]	25 µg/mL	> 200 µg/mL	100 µg/mL	≥ 200 µg/mL	≥ 200 µg/mL	> 200 µg/mL	200 µg/mL	12.5 to 25 µg/mL	100 µg/mL	> 200 µg/mL	200 µg/mL	≥ 200 µg/mL	50 to 100 µg/mL	> 200 µg/mL	–	100 µg/mL	> 200 µg/mL	7 mm	50 µg/mL	9 mm	MIC (Listeria monocytogenes): 25 µg/mL; MIC [4, 24]: ≥ 200 µg/mL; MIC (Bacillus anthracis): 100 µg/mL; zone of inhibition at 4 µg/disc [20]: 7 mm; MIC (Moraxella catarrhalis): 6.3 µg/mL; zone of inhibition at 4 µg/disc [12]: 42 mm; MIC ([16]; Streptococcus pneumoniae): 12.5 to 25 µg/mL
CN[C@@H]1[C@H](O)[C@H](NC)[C@H]2O[C@]3(O)[C@H](O[C@@H]2[C@H]1O)O[C@H](C)C[C@@]3(O)CNCc1ccc(Cl)cc1 [compound 18, 3′-(R)-3′-(4-Chlorobenzylaminomethyl)dihydrospectinomycin Trihydrobromide]	0.8 to 1.6 µg/mL	200 µg/mL	3.1 µg/mL	100 to 200 µg/mL	25 to 50 µg/mL	200 µg/mL	–	3.1 to 6.3 µg/mL	25 µg/mL	100 to 200 µg/mL	25 µg/mL	> 200 µg/mL	12.5 µg/mL	200 µg/mL	1.6 to 3.1 µg/mL	25 µg/mL	–	15 to 16 mm	12.5 to 25 µg/mL	16 to 18 mm	MIC (Listeria monocytogenes): 6.3 µg/mL; MIC [4, 24]: 100 to 200 µg/mL; MIC ([7]; Enterococcus faecalis, ATCC33186, read-out: MIC E.f.): 6.3 to 12.5 µg/mL; MIC (Bacillus anthracis): 25 µg/mL; MIC (Moraxella catarrhalis): 0.8 µg/mL; zone of inhibition at 4 µg/disc [12]: 21 mm; MIC ([18]; Staphylococcus aureus): 12.5 to 25 µg/mL
CN[C@@H]1[C@H](O)[C@H](NC)[C@H]2O[C@]3(O)[C@H](O[C@@H]2[C@H]1O)O[C@H](C)C[C@@]3(O)CNCc1cnc[nH]1 [compound 20]	50 µg/mL (≈ 113 µM)	200 µg/mL (≈ 451 µM)	25 µg/mL (≈ 56.4 µM)	100 to 200 µg/mL (≈ 225 to 451 µM)	200 µg/mL (≈ 451 µM)	50 to 100 µg/mL (≈ 113 to 225 µM)	100 µg/mL (≈ 225 µM)	25 µg/mL (≈ 56.4 µM)	3.1 to 6.3 µg/mL (≈ 6.99 to 14.2 µM)	100 to 200 µg/mL (≈ 225 to 451 µM)	100 to 200 µg/mL (≈ 225 to 451 µM)	> 200 µg/mL	6.3 µg/mL (≈ 14.2 µM)	200 µg/mL (≈ 451 µM)	25 to 50 µg/mL (≈ 56.4 to 113 µM)	50 to 100 µg/mL (≈ 113 to 225 µM)	≥ 200 µg/mL	–	50 µg/mL (≈ 113 µM)	–	MIC [4, 24]: 100 to 200 µg/mL (≈ 225 to 451 µM); MIC (Bacillus anthracis): 50 to 100 µg/mL (≈ 113 to 225 µM)
CN[C@@H]1[C@H](O)[C@H](NC)[C@H]2O[C@]3(O)[C@H](O[C@@H]2[C@H]1O)O[C@H](C)C[C@@]3(O)CNCc1cccc(C)n1 [compound 22, 3′-(A)-3′-[(6-Methyl)-2-pyridinylmethylamino)dihydrospectinomycin Tetrahydrobromide]	6.3 µg/mL	> 200 µg/mL	50 µg/mL	> 200 µg/mL	50 to 100 µg/mL	> 200 µg/mL	25 µg/mL	25 µg/mL	12.5 µg/mL	> 200 µg/mL	100 µg/mL	> 200 µg/mL	6.3 µg/mL	> 200 µg/mL	6.3 to 12.5 µg/mL	50 µg/mL	≥ 200 µg/mL	10 mm	100 to 200 µg/mL	14 mm	MIC (Listeria monocytogenes): 12.5 µg/mL; MIC [4, 24]: > 200 µg/mL; MIC (Bacillus anthracis): 50 µg/mL; zone of inhibition at 4 µg/disc [20]: 11 mm; MIC (Moraxella catarrhalis): 3.1 µg/mL
CN[C@@H]1[C@H](O)[C@H](NC)[C@H]2O[C@]3(O)[C@H](O[C@@H]2[C@H]1O)O[C@H](C)C[C@]3(O)CNCc1ccc(F)cc1 [compound 28, 3′-(S)-3′-[(4-fluoro)benzylaminomethyl)]dihydrospectinomycin Trihydrochloride]	100 to 200 µg/mL	–	–	> 200 µg/mL	> 200 µg/mL	> 200 µg/mL	> 200 µg/mL	≥ 200 µg/mL	–	–	200 µg/mL	> 200 µg/mL	200 µg/mL	–	≥ 200 µg/mL	> 200 µg/mL	> 200 µg/mL	0 mm	> 200 µg/mL	0 mm	zone of inhibition at 4 µg/disc [12]: 0 mm
CN[C@@H]1[C@H](O)[C@H](NC)[C@H]2O[C@]3(O)[C@H](O[C@@H]2[C@H]1O)O[C@H](C)C[C@@]3(O)CNCc1nc2ccccc2s1 [compound 34, 3′-(A′)-3′-(benzo[d]thiazolylmethyl)aminomethyl dihydrospectinomycin Trihydrobromide]	3.1 µg/mL	> 200 µg/mL	50 to 100 µg/mL	> 200 µg/mL	50 to 100 µg/mL	100 to 200 µg/mL	25 µg/mL	–	100 µg/mL	> 200 µg/mL	100 µg/mL	> 200 µg/mL	12.5 µg/mL	> 200 µg/mL	6.3 µg/mL	50 µg/mL	100 to 200 µg/mL	7 mm	–	12 mm	zone of inhibition at 4 µg/disc [20]: 8 mm

— patent US10266544B2, “Aryl substituted aminomethyl spectinomycin analogs as antibacterial agents” (ST. JUDE CHILDREN'S RESEARCH HOSPITAL, INC., priority 2013, dated 2019)
